From PMC5418449, “Characterisation of CCT271850, a selective, oral and potent MPS1 inhibitor, used to directly measure in vivo MPS1 inhibition vs therapeutic efficacy” (British Journal of Cancer, 2017)

Experiments:
005B = test system: 005B; set-up: MTT antiproliferation assay, absorbance at 570 nm, human cancer cell line panel; settings: 3-day MTT; inhibitor; read-out: Table S1. IC50 of CCT271850 determined by MTT and clonogenic assays (CA). / All cell lines were tested at least 2 times. / 3-day MTT
Procedure: (§1) Cell lines were obtained from the American Type Culture Collection and grown in their recommended culture medium, supplemented with 10% FBS at 37 °C in 5% CO2. In-house authentication of cell lines by SNP profiling was carried out and cultured cells were passaged for less than 6 months before replacement from early-passage frozen stocks. Cells were regularly screened for Mycoplasma, using a PCR-based assay (VenorGem; Minerva Biolabs, Berlin, Germany). Transfections were carried out at ∼80% confluency with the plasmids indicated, using Lipofectamine LTX (15338030, Life Technologies, Carlsbad, CA, USA) according to the manufacturer's instructions. Cell proliferation assays were carried out by colorimetric MTT method (Sigma, St Louis, MO, USA) as described elsewhere ([Mosmann, 1983]). Briefly, cells were plated in 96-well plates at 2000–5000 cells per well (depending on the cell line) followed by treatment with two-fold dilutions of 0–25 μM drug for 72 h. Absorbance was measured at 570 nm with the Wallac VICTOR2 1420 Multilabel Counter (PerkinElmer, Waltham, MA, USA). To evaluate CCT271850 antiproliferation effects in a large panel of human cancer cell lines, 91 cell lines were treated for 72 h and 14 days at different compound concentrations in growth inhibition assays. The growth inhibition values as measured by IC50 are summarised in Table 2 and Supplementary Table S1. […] Cell lines from colon and head and neck cancers were among the most sensitive.

011A = test system: 011A; set-up: MTT antiproliferation assay, absorbance at 570 nm, human cancer cell line panel; settings: 3-day MTT; inhibitor; read-out: Table S1. IC50 of CCT271850 determined by MTT and clonogenic assays (CA). / All cell lines were tested at least 2 times. / 3-day MTT
Procedure: as §1

015B = test system: 015B; set-up: MTT antiproliferation assay, absorbance at 570 nm, human cancer cell line panel; settings: 3-day MTT; inhibitor; read-out: Table S1. IC50 of CCT271850 determined by MTT and clonogenic assays (CA). / All cell lines were tested at least 2 times. / 3-day MTT
Procedure: as §1

CFPAC-1 = test system: CFPAC-1; set-up: MTT antiproliferation assay, absorbance at 570 nm, human cancer cell line panel; settings: 3-day MTT; inhibitor; read-out: Table S1. IC50 of CCT271850 determined by MTT and clonogenic assays (CA). / All cell lines were tested at least 2 times. / 3-day MTT
Procedure: as §1

CaoV3 = test system: CaoV3; set-up: MTT antiproliferation assay, absorbance at 570 nm, human cancer cell line panel; settings: 3-day MTT; inhibitor; read-out: Table S1. IC50 of CCT271850 determined by MTT and clonogenic assays (CA). / All cell lines were tested at least 2 times. / 3-day MTT
Procedure: as §1

Det562 = test system: Det562; set-up: MTT antiproliferation assay, absorbance at 570 nm, human cancer cell line panel; settings: 3-day MTT; inhibitor; read-out: Table S1. IC50 of CCT271850 determined by MTT and clonogenic assays (CA). / All cell lines were tested at least 2 times. / 3-day MTT
Procedure: as §1

EF021 = test system: EF021; set-up: MTT antiproliferation assay, absorbance at 570 nm, human cancer cell line panel; settings: 3-day MTT; inhibitor; read-out: Table S1. IC50 of CCT271850 determined by MTT and clonogenic assays (CA). / All cell lines were tested at least 2 times. / 3-day MTT
Procedure: as §1

HN15 = test system: HN15; set-up: MTT antiproliferation assay, absorbance at 570 nm, human cancer cell line panel; settings: 3-day MTT; inhibitor; read-out: Table S1. IC50 of CCT271850 determined by MTT and clonogenic assays (CA). / All cell lines were tested at least 2 times. / 3-day MTT
Procedure: as §1

Hs766T = test system: Hs766T; set-up: MTT antiproliferation assay, absorbance at 570 nm, human cancer cell line panel; settings: 3-day MTT; inhibitor; read-out: Table S1. IC50 of CCT271850 determined by MTT and clonogenic assays (CA). / All cell lines were tested at least 2 times. / 3-day MTT
Procedure: as §1

IGROV1 = test system: IGROV1; set-up: MTT antiproliferation assay, absorbance at 570 nm, human cancer cell line panel; settings: 3-day MTT; inhibitor; read-out: Table S1. IC50 of CCT271850 determined by MTT and clonogenic assays (CA). / All cell lines were tested at least 2 times. / 3-day MTT
Procedure: as §1

Lon-HN5 = test system: Lon-HN5; set-up: MTT antiproliferation assay, absorbance at 570 nm, human cancer cell line panel; settings: 3-day MTT; inhibitor; read-out: Table S1. IC50 of CCT271850 determined by MTT and clonogenic assays (CA). / All cell lines were tested at least 2 times. / 3-day MTT
Procedure: as §1

Miapaca-2 = test system: Miapaca-2; set-up: MTT antiproliferation assay, absorbance at 570 nm, human cancer cell line panel; settings: 3-day MTT; inhibitor; read-out: Table S1. IC50 of CCT271850 determined by MTT and clonogenic assays (CA). / All cell lines were tested at least 2 times. / 3-day MTT
Procedure: as §1

O13 = test system: O13; set-up: MTT antiproliferation assay, absorbance at 570 nm, human cancer cell line panel; settings: 3-day MTT; inhibitor; read-out: Table S1. IC50 of CCT271850 determined by MTT and clonogenic assays (CA). / All cell lines were tested at least 2 times. / 3-day MTT
Procedure: as §1

OAW28 = test system: OAW28; set-up: MTT antiproliferation assay, absorbance at 570 nm, human cancer cell line panel; settings: 3-day MTT; inhibitor; read-out: Table S1. IC50 of CCT271850 determined by MTT and clonogenic assays (CA). / All cell lines were tested at least 2 times. / 3-day MTT
Procedure: as §1

OVCAR5 = test system: OVCAR5; set-up: MTT antiproliferation assay, absorbance at 570 nm, human cancer cell line panel; settings: 3-day MTT; inhibitor; read-out: Table S1. IC50 of CCT271850 determined by MTT and clonogenic assays (CA). / All cell lines were tested at least 2 times. / 3-day MTT
Procedure: as §1

PA-1 = test system: PA-1; set-up: MTT antiproliferation assay, absorbance at 570 nm, human cancer cell line panel; settings: 3-day MTT; inhibitor; read-out: Table S1. IC50 of CCT271850 determined by MTT and clonogenic assays (CA). / All cell lines were tested at least 2 times. / 3-day MTT
Procedure: as §1

PANC-1 = test system: PANC-1; set-up: MTT antiproliferation assay, absorbance at 570 nm, human cancer cell line panel; settings: 3-day MTT; inhibitor; read-out: Table S1. IC50 of CCT271850 determined by MTT and clonogenic assays (CA). / All cell lines were tested at least 2 times. / 3-day MTT
Procedure: as §1

PJ41 = test system: PJ41; set-up: MTT antiproliferation assay, absorbance at 570 nm, human cancer cell line panel; settings: 3-day MTT; inhibitor; read-out: Table S1. IC50 of CCT271850 determined by MTT and clonogenic assays (CA). / All cell lines were tested at least 2 times. / 3-day MTT
Procedure: as §1

PT45 = test system: PT45; set-up: MTT antiproliferation assay, absorbance at 570 nm, human cancer cell line panel; settings: 3-day MTT; inhibitor; read-out: Table S1. IC50 of CCT271850 determined by MTT and clonogenic assays (CA). / All cell lines were tested at least 2 times. / 3-day MTT
Procedure: as §1

RMG1 = test system: RMG1; set-up: MTT antiproliferation assay, absorbance at 570 nm, human cancer cell line panel; settings: 3-day MTT; inhibitor; read-out: Table S1. IC50 of CCT271850 determined by MTT and clonogenic assays (CA). / All cell lines were tested at least 2 times. / 3-day MTT
Procedure: as §1

SMOV2 = test system: SMOV2; set-up: MTT antiproliferation assay, absorbance at 570 nm, human cancer cell line panel; settings: 3-day MTT; inhibitor; read-out: Table S1. IC50 of CCT271850 determined by MTT and clonogenic assays (CA). / All cell lines were tested at least 2 times. / 3-day MTT
Procedure: as §1

SW626 = test system: SW626; set-up: MTT antiproliferation assay, absorbance at 570 nm, human cancer cell line panel; settings: 3-day MTT; inhibitor; read-out: Table S1. IC50 of CCT271850 determined by MTT and clonogenic assays (CA). / All cell lines were tested at least 2 times. / 3-day MTT
Procedure: as §1

Suit-2 = test system: Suit-2; set-up: MTT antiproliferation assay, absorbance at 570 nm, human cancer cell line panel; settings: 3-day MTT; inhibitor; read-out: Table S1. IC50 of CCT271850 determined by MTT and clonogenic assays (CA). / All cell lines were tested at least 2 times. / 3-day MTT
Procedure: as §1

HN6 = test system: HN6; set-up: clonogenic colony formation assay, growth inhibition IC50; settings: 14-day clonogenic; read-out: Table S1. IC50 of CCT271850 determined by MTT and clonogenic assays (CA). / All cell lines were tested at least 2 times. / 14-day CA
Procedure: To evaluate CCT271850 antiproliferation effects in a large panel of human cancer cell lines, 91 cell lines were treated for 72 h and 14 days at different compound concentrations in growth inhibition assays. The growth inhibition values as measured by IC50 are summarised in Table 2 and Supplementary Table S1. […] Cell lines from colon and head and neck cancers were among the most sensitive.

Which IC50 (005B) does the source give for `COc1cc(-c2cnn(C)c2)ccc1Nc1ncc2ccnc(N[C@@H](C)C(C)(C)C)c2n1` [34h, CCT271850] here?
The IC50 was 0.44 µM.

And the IC50 (011A)?
Its IC50 is 1.62 µM.

And the IC50 (015B)?
The IC50 was 0.35 µM.

And the IC50 (CFPAC-1)?
The IC50 was 0.91 µM.

And the IC50 (CaoV3)?
Its IC50 is 0.36 µM.

And the IC50 (Det562)?
The IC50 was 1.31 µM.

And the IC50 (EF021)?
The IC50 was 0.751 µM.

What about the IC50 (HN15) of the same compound?
Its IC50 is 1.75 µM.

What about the IC50 (Hs766T) of the same compound?
The IC50 was 1.9 µM.

And the IC50 (IGROV1)?
The IC50 was 3.59 µM.

And the IC50 (Lon-HN5)?
The IC50 was 0.325 µM.

What about the IC50 (Miapaca-2) of the same compound?
Its IC50 is 0.245 µM.

What about the IC50 (O13) of the same compound?
The IC50 was 1.26 µM.

And the IC50 (OAW28)?
The IC50 was 1.02 µM.

What about the IC50 (OVCAR5) of the same compound?
Its IC50 is 0.73 µM.

What about the IC50 (PA-1) of the same compound?
Its IC50 is 2.25 µM.

What about the IC50 (PANC-1) of the same compound?
The IC50 was 1.38 µM.

And the IC50 (PJ41)?
Its IC50 is 0.52 µM.

What about the IC50 (PT45) of the same compound?
The IC50 was 0.96 µM.

What about the IC50 (RMG1) of the same compound?
The IC50 was 0.111 µM.

And the IC50 (SMOV2)?
Its IC50 is 0.795 µM.

And the IC50 (SW626)?
Its IC50 is 4.21 µM.

And the IC50 (Suit-2)?
The IC50 was 0.435 µM.

And the IC50 (HN6)?
Its IC50 is 15 µM.
